Experimental data as given in patent US12239652B2, “Composition for preventing or treating muscular diseases, or for improving muscular functions, containing ganglioside” (INDUSTRY-ACADEMIC COOPERATION FOUNDATION, YONSEI UNIVERSITY, priority 2018, dated 2025).

Assays:
p-p70S6K = test: Western blot of mRNA translation biomarkers in TNF-α-treated L6 myotubes: p-p70S6K; type: cell-based; settings: 50 ng/mL TNF-α, 1 μM or 5 μM
Experimental: (§1) L6 myoblasts (ATCC) were seeded with DMEM (Hyclone) supplemented with 10% FBS (Hyclone) in a 6-well plate at a density of 1×10^5 cells/well, followed by culture. When the cultured cells reached a confluency of ˜80-85% per well, the media in the wells were replaced with DMEM (Hyclone) supplemented with 2% HS (Hyclone), followed by culture for additional 6 days to induce differentiation into myotubes. During culture for 6 days, the culture media were changed once every other day a total of 3 times. […] A group treated with 0.01% DMSO instead of the sample was used as a control. Cells were lysed with NP-40 buffer (ELPIS-Biotech, Daej eon, Korea) with a protease inhibitor cocktail (Sigma-Aldrich, St. Louis, MO, USA) and centrifuged at 13,000 rpm for 10 min. The cell lysate was obtained from the supernatant. The concentration of proteins in the supernatant was determined by the Bradford method (Bio-Rad Laboratories Inc.). Proteins at a certain concentration were heated for 5 min and separated by SDS-PAGE electrophoresis. The separated proteins were transferred to nitrocellulose membranes. Then, p-mTOR, mTOR, p-p70S6K, p70S6K, p-4EBP1, 4EBP1, and alpha-tubulin primary antibodies (Cell signaling technology, Beverly, MA, USA) were diluted at a ratio of 1:1000 with 2.5% bovine serum albumin (BSA; Bioworld, Dubin, OH, USA) and incubated with the proteins transferred to the nitrocellulose membranes at room temperature for 20 h. After incubation of the primary antibodies, the nitrocellulose membranes were washed 3 times with Tris-buffer saline Tween 20 (TBST) for 10 min. After washing, an anti-rabbit secondary antibody (Bethyl Laboratories, Inc., Montgomery, TA, USA) conjugated with horseradish peroxidase recognizing the primary antibodies was diluted 1:5000 with 2.5% BSA (Bioworld) and incubated with the nitrocellulose membranes at room temperature for 2 h. […]
(§2) Protein bands detected through antibody binding were developed using an ECL western blot detection reagent (Amersham, Tokyo, Japan) and visualized using a G;BOX EF imaging system (Syngene, Cambridge, UK). […]

p-mTOR = test: Western blot of mRNA translation biomarkers in TNF-α-treated L6 myotubes: p-mTOR; type: cell-based; settings: 50 ng/mL TNF-α, 1 μM or 5 μM
Experimental: as §1, §2

atrogin-1 = test: RT-PCR of muscle degrading protein mRNA in TNF-α-treated L6 myotubes: atrogin-1; type: cell-based; settings: 50 ng/mL TNF-α, 1 μM or 5 μM
Experimental: (§3) L6 myoblasts (ATCC) were seeded with DMEM (Hyclone) supplemented with 10% FBS (Hyclone) in a 6-well plate at a density of 1×10^5 cells/well, followed by culture. When the cultured cells reached a confluency of ˜80-85% per well, the media in the wells were replaced with DMEM (Hyclone) supplemented with 2% HS (Hyclone), followed by culture for additional 6 days to induce differentiation into myotubes. During culture for 6 days, the culture media were changed once every other day a total of 3 times. The differentiation-induced cells were harvested and the cell media were replaced with DMEM supplemented with 50 ng/mL TNF-α (PeproTech) in which ganglioside GM3 (Cayman) was dissolved at a concentration of 1 μM or 5 μM. A group treated with 0.01% DMSO instead of the sample was used as a control. Total RNA was isolated from cells using TRIzol reagent (Takara, Kyoto, Japan). The isolated total RNA was quantified using NanoDrop 1000 (Thermo Fisher Scientific Inc., Waltham, MA, USA). 16 μL of the RNA was synthesized into cDNA using Reverse Transcriptase Premix (ELPIS-Biotech) and a PCR system (Gene Amp PCR System 2700; Applied Biosystems, Foster City, CA, USA) at 42° C. for 55 min and 70° C. for 15 min. 3 μL of the synthesized cDNA, the specific primers shown in Table 1 (Bioneer, Daej eon, Korea), and PCR premix (ELPIS-Biotech) were mixed and PCR was repeated 30 times at 95° C. for 30 sec, 60° C. for 1 min, and 72° C. for 1 min. After PCR amplification, cDNA was separated by electrophoresis on a 1.5% agarose gel and the cDNA bands were visualized using a G;BOX EF imaging system (Syngene).
(§4) The procedure of Example 8 was repeated except that cells were treated with ganglioside GM1 (Cayman) at a concentration of 15 μM or 25 μM to investigate the mRNA transcription and expression levels of atrogin-1 and MuRF1 as muscle degrading proteins.
(§5) The procedure of Example 8 was repeated except that cells were treated with ganglioside GD1a (Cayman) at a concentration of 1 μM or 3 μM to investigate the mRNA transcription and expression levels of atrogin-1 and MuRF1 as muscle protein degradation-related enzymes.
(§6) The procedure of Example 8 was repeated except that cells were treated with each of gangliosides GT1b and GQ1b (Cayman) at a concentration of 1 μM to investigate the mRNA transcription and expression levels of atrogin-1 and MuRF1 as muscle protein degradation-related enzymes.

MuRF1 = test: RT-PCR of muscle degrading protein mRNA in TNF-α-treated L6 myotubes: MuRF1; type: cell-based; settings: 50 ng/mL TNF-α, 1 μM or 5 μM
Experimental: as §3, §4, §5, §6

p-4EBP1 = test: Western blot of mRNA translation biomarkers in TNF-α-treated L6 myotubes: p-4EBP1; type: cell-based; settings: 50 ng/mL TNF-α, 1 μM or 5 μM
Experimental: as §1, §2

Wistar rats = test: Muscle mass (soleus weight) in TNF-α-induced muscular atrophy animal model; type: in vivo; settings: 50 mg/kg body weight once a day for 8 weeks
Experimental: Wistar rats, aged five weeks, were acclimatized for one week and supplied with 100 ng/g of TNF-α for 2 weeks to induce muscular atrophy. The animals were randomly divided into a total of 5 groups, 8 animals per group, depending on their weight. Each of gangliosides GM3, GM1, GD1a, GT1b, and GQ1b (each 50 mg/kg body weight) as experimental groups was suspended in 0.25% carboxymethylcellulose. The suspension was administered at a given time once a day for 8 weeks. A group administered the same amounts of 0.25% carboxymethyl cellulose and TNF-α ingested by each experimental group was used as a control.
After administration of the sample for 8 weeks, the right soleus was dissected and its weight was measured with a microbalance (Mettler PE160, USA).

mTOR = mTOR Sandwich ELISA in L6 myotubes (activity for myogenic induction); type: cell-based; settings: 1 μM or 5 μM, 12-h culture, *P<0.05
Experimental: The mTOR protein is known to induce the activation of proteins involved in muscle protein synthesis and an increase in muscle mass in the PI3K/Akt signaling pathway in muscle cells when phosphorylated and activated. Thus, the activity of mTOR was confirmed using an mTOR Sandwich ELISA kit (Cell Signaling Technology, Beverly, MA, USA) to determine the activity of ganglioside GM3 for myogenic induction.
L6 myoblasts (ATCC; Manassas, VA, USA) were seeded with Dulbecco's modified Eagle's media (DMEM; Hyclone) supplemented with 10% fetal bovine serum (FBS; Hyclone, Logan, UT, USA) in a 6-well plate at a density of 1×10^5 cells/well, followed by culture for 24 h. The media in the wells were replaced with DMEM (Hyclone) supplemented with 2% horse serum (HS; Hyclone), followed by culture for additional 6 days to differentiate the L6 cells into myotubes. Then, cells were treated with ganglioside GM3 (Cayman, Ann Arbor, MI, USA) at a concentration of 1 μM or 5 μM. After 12-h culture, cells were lysed by treatment with a cell lysis buffer. Proteins in the cell lysate were quantified by the Bradford method (Bio-Rad Laboratories Inc., Hercules, CA, USA) and the concentration of the cell lysate was then adjusted to 1 mg/mL. The cell lysate was plated in microwells bound with anti-mTOR antibody (50 μL/well) and cultured at 37° C. for 2 h. Cells were washed a total of 4 times with a washing buffer, treated with a detection antibody, and cultured at 37° C. for 1 h, rewashed a total of 4 times with a washing buffer, added with a horseradish peroxidase (HRP)-conjugated secondary antibody, and cultured at 37° C. for 30 min. Finally, after washing a total of 4 times with a washing buffer, TMB substrate was added to each well. After culture at 37° C. for 10 min, a stop solution was added to stop the TMB reaction. 2 min later, absorbance was measured at a wavelength of 450 nm to determine the level of mTOR in the myotubes treated with ganglioside GM3.
The procedure of Example 1 was repeated except that cells were treated with ganglioside GM1 (Cayman) at a concentration of 15 μM or 25 μM to examine the activity of the ganglioside for myogenic induction.
The procedure of Example 1 was repeated except that cells were treated with ganglioside GD1a (Cayman) at a concentration of 1 μM or 3 μM to examine the activity of the ganglioside for myogenic induction.
The procedure of Example 1 was repeated except that cells were treated with each of gangliosides GT1b and GQ1b (Cayman) at a concentration of 1 μM to examine the activity of the ganglioside for myogenic induction.

CCCCCCCCCCCCC/C=C/[C@@H](O)[C@H](CO[C@@H]1OC(CO)[C@@H](O[C@@H]2OC(CO)[C@@H](O)C(O[C@]3(C(=O)O)CC(O)[C@@H](NC(C)=O)C([C@@H](O)[C@H](O)CO)O3)C2O)C(O)C1O)NC(=O)CCCCCCCCCCCCCCCCC (some centres unmarked) [Ganglioside GM3, ganglioside GM3]
expression level of phosphorylated p-P70S6K in L6 muscle cells (p-p70S6K): increased
expression level of phosphorylated p-mTOR in L6 muscle cells (p-mTOR): increased
mRNA expression level of atrogin-1 in L6 muscle cells (atrogin-1): reduced
mRNA expression level of MuRF1 in L6 muscle cells (MuRF1): reduced
expression level of phosphorylated p-4EBP1 in L6 muscle cells (p-4EBP1): increased
increase of muscle (soleus) weight compared to the control group (Wistar rats): 23.56%
Average soleus weight (Wistar rats; right soleus, control 416.0 ± 19.57): 514.0 ± 18.4 mg
activity of mTOR in L6 muscle cells (mTOR): significantly increased
